Measured values taken from PubChem BioAssay AID1963864 (Molecular Pharmacology Branch, DTP, NCI, 2024).

Test system: KRAS PDC multicell spheroid viability
Assay: Anticancer human tumor 521955-158-R6-J3-PDC patient-derived pancreatic carcinoma cell line growth inhibition [KRAS2]
Details: for IC50: curve of first compound; for viability, T/C: stronger effect = lower value
Method in brief: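 Combination screen of spheroid viability in tumor-cell co-cultures with endothelial (HUVEC) and mesenchymal stem cell stroma. Each agent was tested in half-log dilutions, topping at clinical Cmax or at 10 microM without a known Cmax.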

[1] = second compound 0.1 µM, first compound 0.000316 µM
[2] = second compound 0.1 µM, first compound 0.001 µM
[3] = second compound 0.1 µM, first compound 0.00316 µM
[4] = second compound 0.1 µM, first compound 0.01 µM
[5] = second compound 0.1 µM, first compound 0.0316 µM
[6] = second compound 0.1 µM, first compound 0.1 µM
[7] = second compound 0.316 µM, first compound 0.000316 µM
[8] = second compound 0.316 µM, first compound 0.001 µM
[9] = second compound 0.316 µM, first compound 0.00316 µM
[10] = second compound 0.316 µM, first compound 0.01 µM
[11] = second compound 0.316 µM, first compound 0.0316 µM
[12] = second compound 0.316 µM, first compound 0.1 µM
[13] = second compound 1 µM, first compound 0.000316 µM
[14] = second compound 1 µM, first compound 0.001 µM
[15] = second compound 1 µM, first compound 0.00316 µM
[16] = second compound 1 µM, first compound 0.01 µM
[17] = second compound 1 µM, first compound 0.0316 µM
[18] = second compound 1 µM, first compound 0.1 µM
[19] = second compound 3.16 µM, first compound 0.000316 µM
[20] = second compound 3.16 µM, first compound 0.001 µM
[21] = second compound 3.16 µM, first compound 0.00316 µM
[22] = second compound 3.16 µM, first compound 0.01 µM
[23] = second compound 3.16 µM, first compound 0.0316 µM
[24] = second compound 3.16 µM, first compound 0.1 µM
[25] = second compound 10 µM, first compound 0.000316 µM
[26] = second compound 10 µM, first compound 0.001 µM
[27] = second compound 10 µM, first compound 0.00316 µM
[28] = second compound 10 µM, first compound 0.01 µM
[29] = second compound 10 µM, first compound 0.0316 µM
[30] = second compound 10 µM, first compound 0.1 µM
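Also: drug exposure lasted seven days.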
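For viability, T/C in this document: 100% = DMSO vehicle wells and lower means fewer viable cells.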

SMILES: CN(C)C/C=C/C(=O)Nc1cc2c(Nc3ccc(F)c(Cl)c3)ncnc2cc1O[C@H]1CCOC1 + C=CC(=O)N1CCN(c2nc(=O)n(-c3c(C)ccnc3C(C)C)c3nc(-c4c(O)cccc4F)c(F)cc23)C(C)C1
- IC50 (second compound 0.1 µM): > 100 nM
- IC50 (second compound 0.316 µM): > 100 nM
- IC50 (second compound 1 µM): > 100 nM
- IC50 (second compound 3.16 µM): > 100 nM
- IC50 (second compound 10 µM): > 100 nM
- viability, T/C [1]: 101%
- viability, T/C [2]: 92.9%
- viability, T/C [3]: 85.4%
- viability, T/C [4]: 72.8%
- viability, T/C [5]: 68.6%
- viability, T/C [6]: 66.6%
- viability, T/C [7]: 119%
- viability, T/C [8]: 112%
- viability, T/C [9]: 79.9%
- viability, T/C [10]: 81.7%
- viability, T/C [11]: 71.2%
- viability, T/C [12]: 66.3%
- viability, T/C [13]: 113%
- viability, T/C [14]: 92.2%
- viability, T/C [15]: 102%
- viability, T/C [16]: 79.8%
- viability, T/C [17]: 67.6%
- viability, T/C [18]: 69.4%
- viability, T/C [19]: 112%
- viability, T/C [20]: 97%
- viability, T/C [21]: 83.7%
- viability, T/C [22]: 79%
- viability, T/C [23]: 69.6%
- viability, T/C [24]: 69.7%
- viability, T/C [25]: 73.2%
- viability, T/C [26]: 109%
- viability, T/C [27]: 66.7%
- viability, T/C [28]: 62.3%
- viability, T/C [29]: 58.5%
- viability, T/C [30]: 65.3%

SMILES: COC(=O)c1ccc2c(C(=Nc3ccc(N(C)C(=O)CN4CCN(C)CC4)cc3)c3ccccc3)c(O)[nH]c2c1 + C=CC(=O)N1CCN(c2nc(=O)n(-c3c(C)ccnc3C(C)C)c3nc(-c4c(O)cccc4F)c(F)cc23)C(C)C1
- IC50 (second compound 0.1 µM): 4730 nM
- IC50 (second compound 0.316 µM): 3960 nM
- IC50 (second compound 1 µM): 3140 nM
- IC50 (second compound 3.16 µM): 3840 nM
- IC50 (second compound 10 µM): 3770 nM
- viability, T/C [5]: 96.2%
- viability, T/C [6]: 102%
- viability, T/C (second compound 0.1 µM, first compound 0.316 µM): 116%
- viability, T/C (second compound 0.1 µM, first compound 1 µM): 119%
- viability, T/C (second compound 0.1 µM, first compound 3.16 µM): 76.8%
- viability, T/C (second compound 0.1 µM, first compound 10 µM): 0.24%
- viability, T/C [11]: 92.8%
- viability, T/C [12]: 108%
- viability, T/C (second compound 0.316 µM, first compound 0.316 µM): 120%
- viability, T/C (second compound 0.316 µM, first compound 1 µM): 128%
- viability, T/C (second compound 0.316 µM, first compound 3.16 µM): 61.9%
- viability, T/C (second compound 0.316 µM, first compound 10 µM): 0.9%
- viability, T/C [17]: 103%
- viability, T/C [18]: 110%
- viability, T/C (second compound 1 µM, first compound 0.316 µM): 119%
- viability, T/C (second compound 1 µM, first compound 1 µM): 128%
- viability, T/C (second compound 1 µM, first compound 3.16 µM): 49.6%
- viability, T/C (second compound 1 µM, first compound 10 µM): 3.61%
- viability, T/C [23]: 108%
- viability, T/C [24]: 94.6%
- viability, T/C (second compound 3.16 µM, first compound 0.316 µM): 94.2%
- viability, T/C (second compound 3.16 µM, first compound 1 µM): 123%
- viability, T/C (second compound 3.16 µM, first compound 3.16 µM): 59.9%
- viability, T/C (second compound 3.16 µM, first compound 10 µM): 1.53%
- viability, T/C [29]: 82.5%
- viability, T/C [30]: 83.3%
- viability, T/C (second compound 10 µM, first compound 0.316 µM): 88.9%
- viability, T/C (second compound 10 µM, first compound 1 µM): 89%
- viability, T/C (second compound 10 µM, first compound 3.16 µM): 59%
- viability, T/C (second compound 10 µM, first compound 10 µM): 0.68%

SMILES: CC(C)n1nc(-c2ccc3oc(N)nc3c2)c2c(N)ncnc21 + COc1cc2nc(C)nc(NC(C)c3cc(N)cc(C(F)(F)F)c3)c2cc1OC1CCOC1
- IC50 (second compound 0.1 µM): 97.5 nM
- IC50 (second compound 0.316 µM): 94.7 nM
- IC50 (second compound 1 µM): 92 nM
- IC50 (second compound 3.16 µM): 56.6 nM
- IC50 (second compound 10 µM): < 0.316 nM
- viability, T/C [1]: 96.3%
- viability, T/C [2]: 96%
- viability, T/C [3]: 79.9%
- viability, T/C [4]: 73.8%
- viability, T/C [5]: 63.9%
- viability, T/C [6]: 49.1%
- viability, T/C [7]: 101%
- viability, T/C [8]: 85.9%
- viability, T/C [9]: 80%
- viability, T/C [10]: 69.6%
- viability, T/C [11]: 64.6%
- viability, T/C [12]: 47.3%
- viability, T/C [13]: 94.8%
- viability, T/C [14]: 87.1%
- viability, T/C [15]: 74.8%
- viability, T/C [16]: 75.1%
- viability, T/C [17]: 63%
- viability, T/C [18]: 46.8%
- viability, T/C [19]: 64.9%
- viability, T/C [20]: 66.8%
- viability, T/C [21]: 63.5%
- viability, T/C [22]: 60.1%
- viability, T/C [23]: 61.6%
- viability, T/C [24]: 39.5%
- viability, T/C [25]: 32%
- viability, T/C [26]: 24.6%
- viability, T/C [27]: 68.8%
- viability, T/C [28]: 60.7%
- viability, T/C [29]: 45.5%
- viability, T/C [30]: 39.6%
